Key:
[1] = system: BCSCs derived from SUM-159PT cells; assay: DRAQ7 cell death assay in BCSCs from SUM-159PT; assay type: cell-based, human; details: 5 nM RocA, day 7
Method: (§1) The induction of cell death by the small molecule inhibitor rocaglamide A (RocA) (Sigma/Aldrich, St. Louis, Mo., Cat. #—SML0656) was followed by employing Deep Red Anthraquinone 7 (DRAQ7) dye (Abcam, Cat. #—ab109202). DRAQ7 is a cell impermeable, far-red fluorescent DNA dye that stains the nuclei of dead and plasma membrane-compromised cells. […] For the cell death analysis, ALDH+ BCSCs were treated with the indicated drug dosage for 7 days. On day 7, DRAQ7 was added to the cells (1:2,000 dilution) and incubated overnight. Dead BCSCs were tracked by DRAQ7 fluorescence by employing the EVOS cell imaging system (ThermoFisher Scientific, Rockford, Ill.).

[2] = system: BCSCs derived from MDA-Bone-Un cells; assay: Mammosphere formation efficiency (MFE) assay, BCSCs from MDA-Bone-Un; assay type: cell-based, human; details: 10 nM RocA, p<0.0001
Method: (§2) The evaluation of MFE was performed as described previously. Briefly, 1×10^3 ALDH+ BCSCs of MDA-Bone-Un or SUM-159PT origins were seeded onto 96-well ultra-low attachment plates. They were maintained in DMEM/F12 media supplemented with […] bFGF, […] hEGF, 2% B27 mixture, and 1% penicillin/streptomycin for 7 days. The mammosphere images were obtained longitudinally by employing IncuCyte® S3 Live-Cell Analysis System (Essen BioScience, Ann Arbor, Mich.). On day 7, MFE was calculated by employing the formula: (number of mammospheres formed/total number of cells seeded)×100. A diameter of 100 μm was used as a cut-off in the determination of the mammosphere forming ability. For the assessment of secondary MFE, the BCSCs from primary MFE were collected, centrifuged, and re-seeded onto 96-well plates coated with poly 2-hydroxyethyl methacrylate (poly-HEMA). The cells were monitored, and the mammospheres were counted using IncuCyte.

[3] = system: BCSCs derived from SUM-159PT cells; assay: Mammosphere formation efficiency (MFE) assay, BCSCs from SUM-159PT; assay type: cell-based, human
Method: as §2

[4] = system: MDA-Bone-Un eIF4A CC and KO cells; assay: Viability of MDA-Bone-Un eIF4A CRISPR control and knockout cells after RocA; assay type: cell-based, human; details: 48 h
Method: (§3) Briefly, to assess the cell viability, 3×10^3 cells/well (SUM-159PT, SUM Pac 200 nM, MDA-Bone-Un eIF4A CC and KO) were seeded and the cells were allowed to attach and spread overnight under adherent or non-adherent low attachment conditions.

[5] = system: BCSCs derived from MDA-Bone-Un cells; assay: Immunoblotting of RocA-treated BCSCs from MDA-Bone-Un; assay type: cell-based, human
[6] = system: BCSCs derived from MDA-Bone-Un cells; assay: DRAQ7 cell death assay in BCSCs from MDA-Bone-Un; assay type: cell-based, human; details: 30 nM RocA, 7 days
Method: as §1

[7] = system: 231S LASP1 NS and KD cells; assay: Pharmacological inhibition of eIF4A in 231S LASP1 NS and KD cells; assay type: cell-based, human
Method: 231S LASP1 NS/KD cells were plated into 96-well dishes (3,000 cells/well) and incubated with various amounts of rocaglamide A (RocA) (Sigma/Aldrich, St. Louis, Mo., Cat. No. SML0656) in low serum media (LSM-DMEM/0.5% FBS). Images were acquired via an IncuCyte R S3 Live-Cell Analysis System (Essen BioScience, Ann Arbor, Mich.). Two images per well were acquired every 2 h. Data was processed on the IncuCyte S3 software (Essen BioScience, Ann Arbor, Mich.). Only cells with an area >150 μm^2 were analyzed to avoid cellular debris. Data is reflective of the percent confluence of each image at 36 h RocA incubation. Percent inhibition was calculated in reference to the DMSO control. The readings from 231S LASP1 NS cells were set to 1. In the cell viability experiments, 231S LASP1 NS/KD cells were seeded at 6,000 cells/well and allowed to attach and spread overnight. The following day, complete media was replaced with LSM and RocA. Cell viability was then determined 36 h later using a cell counting kit-8 (Sigma/Aldrich, St. Louis, Mo., Cat. No 96992) according to the manufacturer's instructions. Data is reflective of the absorbance at 450 nm (A450). The DMSO controls were set to 100%.

[8] = system: BCSCs derived from SUM-159PT cells; assay: CellTiter-Glo viability assay in BCSCs from SUM-159PT; assay type: cell-based, human; details: 5 nM RocA
Description: (§4) The cell viability was alternatively determined on day 7 following treatment with RocA by employing the CellTiter-Glo® luminescent cell viability kit (Promega, Cat. #—G7570) as per the manufacturer's instructions. This quantitative assay is a homogeneous method of determining the number of viable cells in culture based on the amount of adenosine triphosphate (ATP) present inside the cells.

SUM-159PT cells = assay: Viability of parental and paclitaxel-resistant SUM-159PT cells after RocA; assay type: cell-based, human; details: therapy naïve and paclitaxel-resistant (Pac 200) cells, 48 h, adherent and non-adherent conditions
Method: as §3

[9] = system: BCSCs derived from MDA-Bone-Un cells; assay: CellTiter-Glo viability assay in BCSCs from MDA-Bone-Un; assay type: cell-based, human; details: 7 days
Description: as §4

MCF7 breast cancer cells = details: RNA-Seq data, p 4.3E−10, adjusted p 8.5E−7; cited from earlier work
[10] = system: triple-negative SUM-159-PT cells; assay: Immunoblotting after digoxin in SUM-159-PT cells; assay type: cell-based, human; details: 30 nM digoxin (low dose)
eIF4A1 = biological target: T1, eIF4A1 (Homo sapiens, UniProt P60842); assay type: cell-based
T1 construct: A GQ-5′-UTR dual reporter was created in breast cancer cell lines; endogenous in cells
T1 sequence (P60842 whole entry): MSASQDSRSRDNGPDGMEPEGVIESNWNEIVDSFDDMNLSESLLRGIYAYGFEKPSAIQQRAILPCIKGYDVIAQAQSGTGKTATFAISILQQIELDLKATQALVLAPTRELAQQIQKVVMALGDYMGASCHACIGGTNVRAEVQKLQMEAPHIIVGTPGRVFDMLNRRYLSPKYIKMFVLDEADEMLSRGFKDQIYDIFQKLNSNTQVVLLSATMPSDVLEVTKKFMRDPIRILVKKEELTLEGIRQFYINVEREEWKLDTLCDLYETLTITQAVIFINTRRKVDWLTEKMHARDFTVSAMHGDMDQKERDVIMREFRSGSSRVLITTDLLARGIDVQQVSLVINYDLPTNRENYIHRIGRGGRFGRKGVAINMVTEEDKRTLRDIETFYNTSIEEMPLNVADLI
Description: A GQ-5′-UTR dual reporter was created in breast cancer cell lines which would report either a reduction in td-Tomato fluorescence or luciferase activity if eIF4A1 is inhibited by any of the compounds in the Prestwick library (FIGS. 26A-26B).

[11] = system: triple-negative MDA-MB-231 cells; assay: Immunoblotting after digoxin in MDA-MB-231 cells; assay type: cell-based, human
[12] = 45 nM RocA, 72 h, pooled replicates

Structure (SMILES): COc1ccc([C@@]23Oc4cc(OC)cc(OC)c4[C@]2(O)[C@H](O)[C@H](C(=O)N(C)C)[C@H]3c2ccccc2)cc1 [rocaglamide A]
- BCSCs intensely stained with DRAQ7 [1]: More than 50%
- reduction of the primary mammospheres [2]: ~50%
- secondary MFE [2]: severely impacted
- reduction in formation of the primary mammospheres ([3]; 10 nM RocA): 50%
- decrease in secondary MFE ([3]; RocA, compared with primary MFE): more drastic
- viability following RocA challenge ([4]; MDA-Bone-Un eIF4A CC cells): steep decrease in viability
- sensitivity of viability to RocA ([4]; MDA-Bone-Un eIF4A KO cells, up to 60 nM RocA): relatively insensitive
- reduction in NANOG level ([5]; 15 nM RocA, 48 h): 2 fold
- reduction of ABC transporter ABCB1 ([5]; 45 nM RocA, 48 and 72 h, pooled replicates): 10 fold
- decrease of SOX2 level ([5]; 45 nM RocA, 24 h, pooled replicates): 10 fold
- reduction in NANOG level ([5]; 45 nM RocA, 48 h): 10 fold
- reduction of OCT4 ([5]; 45 nM RocA, 48 h (dose experiment)): 3.3 fold
- decrease of OCT4 ([5]; 45 nM RocA, 48 h, 3 biological replicates pooled): 2.5 fold
- SOX2 level increased back ([5]; 45 nM RocA, 48 h, pooled replicates): 2 fold
- SOX2 [5, 12]: degradation of SOX2 was observed
- decrease of OCT4 [5, 12]: 10 fold
- expression of BIRC5, Cyclin D1, Cyclin D3, and ROCK1 ([5]; 15, 30, and 45 nM RocA, 48 h): dramatic reduction
- total protein level of eIF4A ([5]; 15, 30, and 45 nM RocA, 48 h): did not affect
- induction of cleaved caspase-3 (increase) ([5]; RocA 15-45 nM, 48 h): up to 17.1 fold
- levels of the BCSC markers ALDH1A1 and CD44 ([5]; RocA, 48 h): not affected
- SOX2 level ([5]; all concentrations of RocA, 48 h): remained elevated above the basal level
- DRAQ7 staining (dead BCSCs) [6]: intense DRAQ7 staining
- cellular viability ([7]; 231S LASP1 KD cells, RocA 36 h, cell counting kit-8): significantly decreased
- BIRC5 levels ([7]; 231S LASP1 NS cells, 24 h RocA, 30 to 100 nM): dose-dependent decrease
- proliferation ([7]; MDA-MB-231 cells with stable knockdown of LASP1 combined with rocaglamide A): effectively inhibited
- cells dead [8]: More than 50%
- targeting of cell viability (SUM-159PT cells): effective
- viability based on ATP level ([9]; 30 nM RocA): nearly all BCSCs were wiped out
- IC50 ([9]; cellular ATP, read-out: half maximal inhibitory concentration (IC50)): 15 nM

Structure (SMILES): C[C@H]1O[C@@H](O[C@H]2[C@@H](O)C[C@H](O[C@H]3[C@@H](O)C[C@H](O[C@H]4CC[C@@]5(C)[C@H](CC[C@@H]6[C@@H]5C[C@@H](O)[C@]5(C)[C@@H](C7=CC(=O)OC7)CC[C@]65O)C4)O[C@@H]3C)O[C@@H]2C)C[C@H](O)[C@@H]1O [digoxin]
- C-Myc mRNA level (MCF7 breast cancer cells): decrease
- downregulation (reduction) of c-MYC [10]: 60%
- downregulation of the levels of eIF4A1 [10]: 50%
- activity of eIF4A1 (eIF4A1; 3 different TNBC cell lines): potently inhibited
- Z-score (eIF4A1; Prestwick chemical library screen): below −5
- downstream effectors of eIF4A1 activity BIRC5 (survivin) and Rho Kinase 1 (ROCK1) [11]: dose-dependent inhibition
